Data as given in patent US12129248B2, “Chromobox protein inhibitors and uses thereof” (Dana-Farber Cancer Institute, Inc., priority 2016, dated 2024).
pIC50: −log10 of the molar value.

What was measured:
Human His6-CBX7 = Human His6-CBX7 (Homo sapiens (Human), UniProt O95931); test: CBX7 AlphaScreen assay (binding of CBX7 chromodomain to H3K27me3 peptide); settings: for pIC50: average, His6-CBX7 / biotinylated-H3K27me3, read-out: AVG CBX7 Alpha IC50
Excerpt: A biochemical assay was developed based on nanoparticle AlphaScreen assay to monitor the binding of recombinant CBX chromodomain (CBX7) to a methylated peptide (H3K27me3).
The primary assay uses recombinant CBX chromodomain and synthetic, trimethylated H3 histone tail peptide. When CBX/histone tail-binding occurs, AlphaScreen beads are brought in close proximity, resulting in singlet molecular oxygen transfer and production of a luminescent signal. Assay positives inhibiting the binding interaction are therefore expected to prevent complex formation, diminishing signal intensity. The AlphaScreen technology features an anti-Stokes shift in detection: due to energy transfer between beads by singlet oxygen and internal chemical reactions within the acceptor bead, the emission wavelength is blue-shifted relative to the excitation wavelength, which is impossible in traditional fluorescent assays. The relatively long path length of 200 nm that singlet molecular oxygen can travel enables reporting on full protein complexes and not just single target binding. […] Neither the small molecules being tested nor the target protein, CBX7, need to be chemically, conformationally, or behaviorally altered by tethering them to a surface or reporter that may decrease physiological relevance and beget screening artifacts. The primary assay monitors binding of the chromodomain of CBX7 to a histone tail containing a trimethylated lysine at K27, the biologically relevant interaction through which PRC binds to chromatin to repress transcription. This is a robust proximity-based assay that utilizes AlphaScreen technology (PerkinElmer). The assay consists of His6-CBX7 bound to a Ni^++ acceptor bead and the biotinylated histone tail bound to a streptavadin donor bead. Upon CBX7/H3K27me3 binding, the steptavidin bead comes into proximity with the Ni^++ bead to luminesce upon light excitation ([…]; see below).
The protocol for the CBX7 AlphaScreen was as follows: a standard alpha buffer (50 mM HEPES, 150 mM NaCl, 0.1% w/v BSA, 0.01% w/v Tween20) at pH 8.0 and make up two stock solutions at 2× final concentration in the alpha buffer. Solution A contains Human His6-CBX7 is used with biotinylated-H3K27me3 (residues 20-34), at 100 nM and 50 nM respectively. Solution B contains 20 nM streptavidin donor beads and 20 nM nickel acceptor beads. For 384 well assay formats, 10 uL of solution A is added to each well of the assay plate and the plate is spun at 1000 rpm for 30 seconds. 100 nL of experimental compounds from stock plates are delivered by robotic pin transfer using a Janus Workstation (PerkinElmer), allowing the compounds to interact with CBX7 binding prior to assay measurement, followed by another spin and an incubation room temperature. Finally, 10 uL of solution B is added to each well, the plate is spun again and then incubated at room temperature. AlphaScreen measurements are performed on an Envision 2104 (PerkinElmer) utilizing the manufacturer's protocol that has the correct excitation and emission wavelengths, cutoff filters, delay time, etc. A crosstalk calculation is also done through the Envision software to correct for luminescence for adjacent wells while reading the plate. The signal is then normalized to DMSO control wells on the compound plate prior to creation of the IC50 curves.

[1] = system: HCT292 human lung cancer cells; test: HCT292 cell viability (crystal violet / ATPlite); format: cell-based; settings: for pIC50 / viability at 10 µM / viability at 50 µM / viability at 20 µM: Homo sapiens; for pIC50: Table 4, assay not given, cited among cellular activity Tables 3-9 (HCT292); for % Viability / viability at 10 µM / viability at 50 µM / viability at 20 µM: HCT292 cells, relative to DMSO; for % Viability: 96 hours; for viability at 10 µM / viability at 50 µM / viability at 20 µM: 96 h
Description: Lastly, the biological activity of lead compounds was assessed in cancer cells lines determined to be sensitive to CBX inhibition. First, a cell line screening for CBX2 and CBX3 dependence/sensitivity was conducted using shRNAs. […] These cell lines were utilized to evaluate the potential cellular activity of a panel of CBX inhibitors (Tables 3-9).
Briefly, HCT292 cells were treated 24 hours after passage; the compounds in DMSO were added directly to their media. Initially, which cells caused cell death was checked by fixing and staining the cells with crystal violet 96-hours post treatment and then reading the absorbance using the Envision and comparing the signal to a DMSO control. This was done as a preliminary viability screen prior to the ATPlite assay to determine which compounds HCT292 cells were and H661 cells were not sensitive to. […] Thus, a cellular system to evaluate the activity of small molecule CBX inhibitors was established.

CBX7 = CBX7 (Homo sapiens (Human), UniProt O95931); test: Isothermal titration calorimetry; format: binding; settings: in words (FIG. 20)
Excerpt: A new series of compounds were designed and synthesized based on computational modeling of inhibitor compounds with the literature reported crystal structure of CBX.

Human His6-CBX7, sequence (O95931 11-69): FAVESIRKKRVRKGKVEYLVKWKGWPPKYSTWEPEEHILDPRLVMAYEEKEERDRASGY
CBX7, sequence (O95931 whole entry): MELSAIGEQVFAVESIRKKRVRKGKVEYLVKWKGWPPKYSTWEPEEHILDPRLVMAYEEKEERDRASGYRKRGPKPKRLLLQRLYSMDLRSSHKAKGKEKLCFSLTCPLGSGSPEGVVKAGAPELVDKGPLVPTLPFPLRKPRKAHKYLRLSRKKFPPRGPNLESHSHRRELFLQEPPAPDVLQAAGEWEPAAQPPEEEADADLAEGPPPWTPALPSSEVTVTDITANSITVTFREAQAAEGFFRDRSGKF

Row | Compound | pIC50 (Human His6-CBX7) | further results
1 | O=C(CC1S/C(=N/N=C/c2cccnc2)NC1=O)Nc1ccc(N2CCCC2)cc1 (centres unmarked) [ACV-14 (2)] | 4.99 | pIC50 [1]: 3.94
2 | O=C(CC1S/C(=N/N=C/c2ccc(O)c(O)c2O)NC1=O)Nc1ccc(N2CCCC2)cc1 (centres unmarked) [ACV-17 (1), 2-(4-oxo-2-((2,3,4-trihydroxybenzylidene)hydrazono)thiazolidin-5-yl)-N-(4-(pyrrolidin-1-yl)phenyl) acetamide] | 4.16 | % Viability ([1]; 50 uM, listed as 1-258C): 33.0%; viability at 10 µM ([1]; 10 uM): 72.2%
3 | O=C(CC1S/C(=N/N=C/c2ccc(O)c(O)c2O)NC1=O)Nc1ccc(N2CCCC2)cc1 (centres unmarked) [ACV-17 (2)] | 6.03 | % Viability ([1]; 50 uM, listed as 2-165): 58.8%; pIC50 [1]: 6.48
4 | O=C(CC1S/C(=N/N=C/c2ccc(O)c(O)c2O)NC1=O)Nc1ccc(N2CCCC2)cc1 (centres unmarked) [ACV-17(CP)] | 5.76 | % Viability ([1]; 50 uM, listed as 258C (CP)): 20.3%
5 | COC(=O)C1CSC(CC(=O)Nc2ccc(N3CCCC3)cc2)C(=O)N1 (centres unmarked) [ACV-22] |  | binding affinity with CBX (Human His6-CBX7; in words (FIG. 9)): low micromolar; binding affinity by isothermal titration calorimetry (CBX7): further confirmed
6 | O=C(Cc1cnc(NC(=O)Nc2cccnc2)s1)Nc1ccc(N2CCCC2)cc1 [ACV-40, 2-(2-(3-(pyridin-3-yl)ureido)thiazol-5-yl)-N-(4-(pyrrolidin-1-yl)phenyl)acetamide] | 4.89 | viability at 10 µM ([1]; 10 uM): 99%; viability at 50 µM ([1]; 50 uM): 82.9%; pIC50 [1]: 4.08
7 | CN(C)c1ccc(CCNC(=O)CC2S/C(=N/N=C/c3cccnc3)NC2=O)cc1 (centres unmarked) [ACV-42] | 3.81 | viability at 50 µM ([1]; 50 uM): 95.8%; pIC50 [1]: 3.00
8 | CN1CCN(CCNC(=O)CC2S/C(=N/N=C/c3ccc(O)c(O)c3O)NC2=O)CC1 (centres unmarked) [ACV-63 (CP)] | 5.27 | % Viability ([1]; 10 uM, listed as 2-195 (CP)): 34.9%; viability at 20 µM [1]: 41%; viability at 50 µM ([1]; 50 uM): 60.6%
9 | CN1CCN(CCNC(=O)CC2S/C(=N/N=C/c3ccc(O)c(O)c3O)NC2=O)CC1 (centres unmarked) [ACV-63, N-(2-(4-methylpiperazin-1-yl)ethyl)-2-(4-oxo-2-((2,3,4-trihydroxybenzylidene)hydrazono)thiazolidin-5-yl)acetamide] | 6.74 | % Viability ([1]; 10 uM, listed as 2-195): 94.2%; % Viability ([1]; 50 uM, listed as 2-195): 43.5%
10 | O=C(CC1SC(N/N=C/c2ccc(O)c(O)c2O)=NC1=O)Nc1ccc(N2CCCCC2)cc1 (centres unmarked) [ACV-78] | 6.65 | 
11 | O=C(NCCN1CCCC1)c1ccc(-c2csc(N/N=C/c3cccnc3)n2)cc1 [ACV-79] | 5.52 | 
12 | O=C(COCc1ccc(CN2CCCC2)cc1)N[C@H]1CCCN(Cc2cccnc2)C1=O [ACV-80] | 10.54 | 
13 | CN1CCN(CCNC(=O)Cc2cnc(NC(=O)Nc3cccnc3)s2)CC1 [ACV-81] | 3.98 | 
14 | COc1ccc(CC(=O)Nc2ncc(CC(=O)NCCN3CCN(C)CC3)s2)c(OC)c1OC [ACV-82] | 4.29 | 
15 | COc1ccc(CC(=O)Nc2nc(CC(=O)Nc3ccc(N4CCCC4)cc3)cs2)c(OC)c1OC [ACV-83] | 4.62 | 
16 | O=C(CC12SC(CCN3CCOCC3)(NC1=O)C1C(=O)N(c3ccc(N4CCCC4)cc3)C(=O)C12)Nc1ccc(N2CCCC2)cc1 (centres unmarked) [ACV-84] | 5.14 | 
17 | CN1CCN(CCNc2nc(CC(=O)Nc3ccc(N4CCCC4)cc3)cs2)CC1 [ACV-85] | 4.26 | 

Row | Compound | pIC50 (Human His6-CBX7) | further results
18 | O=C(CC1SC(N/N=C/c2ccc(O)c(O)c2O)=NC1=O)Nc1ccc(N2CCCCCC2)cc1 (centres unmarked) [ACV-86] | 4.93 | 
19 | COC(=O)Cc1csc(N/N=C/c2ccc(O)c(O)c2O)n1 [ACV-87] | 5.14 | 
20 | COc1ccc(NC(=O)Cc2csc(NCCN3CCN(C)CC3)n2)c(OC)c1 [ACV-88] | 3.61 | 
21 | O=C(Nc1ccc(N2CCCC2)cc1)c1ccc(-c2csc(CCN3CCOCC3)n2)cc1 [ACV-89] | 4.89 | viability at 10 µM ([1]; 10 uM): 31.3%; viability at 20 µM [1]: 29%; viability at 50 µM ([1]; 50 uM): 28%
22 | COC(=O)c1ccc2nc(-c3ccc(O)c(O)c3O)c(NCc3ccccc3)n2c1 [ACV-91] | 4.92 | viability at 10 µM ([1]; 10 uM): 33.5%; viability at 20 µM [1]: 30.5%; viability at 50 µM ([1]; 50 uM): 18%
23 | O=C(N/N=C/c1ccc(N2CCCC2)cc1)c1ccc(-c2csc(NCCc3cccnc3)n2)cc1 [ACV-92] | 3.77 | 
24 | COC(=O)Cc1cnc(NC(=O)c2ccc(CCN3CCCC3)cc2)s1 [ACV-93] | 3.36 | 
25 | c1cn2c(NC3CCCCC3)c(-c3ccc4[nH]ncc4c3)nc2cn1 [ACV-94] | 3.91 | 
26 | COc1ccc(CC(=O)Nc2nc3cc(C(=O)NCCN4CCN(C)CC4)ccc3s2)cc1OC [ACV-95] | 3.06 | 
27 | O=C(Cc1ccc(O)c(O)c1)NCc1nc(CC(=O)Nc2ccc(N3CCCC3)cc2)cs1 [ACV-96] | 4.10 | 
28 | O=C(c1ccc(-c2csc(NCCc3cccnc3)n2)cc1)N1CCC(N2CCCC2)CC1 [ACV-97] | 4.09 | 
29 | CN1CCN(CCNC(=O)c2ccc(-c3csc(NCCc4cccnc4)n3)cc2)CC1 [ACV-98] | 3.92 | 
30 | O=C(Nc1ccc(N2CCCC2)cc1)c1ccc(-c2csc(NCCc3cccnc3)n2)cc1 [ACV-99] | 4.79 | 
31 | O=C(CC1SC(N2CCC(c3ccc(O)c(O)c3O)=N2)=NC1=O)Nc1ccc(N2CCCC2)cc1 (centres unmarked) [CBX-08, 2-(4-oxo-2-(3-(2,3,4-trihydroxyphenyl)-4,5-dihydro-1H-pyrazol-1-yl)-4,5-dihydrothiazol-5-yl)-N-(4-(pyrrolidin-1-yl)phenyl)acetamide] | 6.08 | 
32 | CN1CCN(CCNC(=O)CC2SC(N3CCC(c4ccc(O)c(O)c4O)=N3)=NC2=O)CC1 (centres unmarked) [CBX-09, N-(2-(4-methylpiperazin-1-yl)ethyl)-2-(4-oxo-2-(3-(2,3,4-trihydroxyphenyl)-4,5-dihydro-1H-pyrazol-1-yl)-4,5-dihydrothiazol-5-yl)acetamide] | 4.27 | 
33 | O=C(CC1S/C(=N\N=C\c2cccnc2)NC1=O)Nc1cccc(Cl)c1Cl (centres unmarked) [JQI-III-263-A] |  | activity in CBX AlphaScreen assay (Human His6-CBX7; cap scan of Scaffold 3, in words (FIG. 8)): improved activity
